These results are taken from paper PMC2075610 (Biochimica et Biophysica Acta. Molecular Basis of Disease, 2006).

For assay [1], the target named is T1, W190/N192 FPR (Homo sapiens, UniProt P21462, R190W). The experiment in a line: biochemical. Type of assay: binding. To be noted: for Ki: Ki (nM ± SEM) for binding of peptides to W190/N192 FPR.
The target in assay [2] is T2, R190/N192 FPR (Homo sapiens, UniProt P21462). Briefly: biochemical. Type of assay: binding.
Assay [3] has as its target T3, R190/K192 FPR (Homo sapiens, UniProt P21462, N192K). The experiment in a line: biochemical. Type of assay: binding.
Assay [4] addresses T2, R190/N192 FPR. The experiment in a line: biochemical. The format is biochemical.
In assay [5] the target is T3, R190/K192 FPR. Briefly: biochemical. The format is biochemical.
Assay [6] concerns the target T1, W190/N192 FPR. Briefly: biochemical. The format is biochemical.
A further assay addresses reverse 229E peptide. The experiment in a line: flow.
Another assay concerns the target MMWLL. Briefly: flow.

Residues, ends and D or L forms follow the SMILES beside them. *: point of attachment. For = O=C*

T2 sequence (P21462 whole entry, looked up): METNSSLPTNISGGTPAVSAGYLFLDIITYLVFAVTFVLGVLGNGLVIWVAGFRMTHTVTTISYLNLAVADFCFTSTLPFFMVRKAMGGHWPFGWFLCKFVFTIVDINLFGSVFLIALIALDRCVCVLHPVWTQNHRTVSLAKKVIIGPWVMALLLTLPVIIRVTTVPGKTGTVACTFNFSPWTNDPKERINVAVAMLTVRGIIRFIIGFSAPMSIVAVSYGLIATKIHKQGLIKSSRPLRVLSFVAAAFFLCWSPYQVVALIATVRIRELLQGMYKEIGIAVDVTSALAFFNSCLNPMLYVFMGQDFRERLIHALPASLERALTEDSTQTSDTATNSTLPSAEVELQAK
T1 sequence (P21462 whole entry R190W, looked up): as the sequence (P21462 whole entry, looked up) above, with R190W counted along it

For `CC(C)C[C@H](NC(=O)[C@@H](N)CCCCN)C(=O)N[C@@H](CC(N)=O)C(=O)N[C@@H](CO)C(=O)N[C@@H](Cc1c[nH]c2ccccc12)C(=O)N[C@@H](CC(=O)O)C(=O)N[C@H](C(=O)N[C@@H](Cc1ccccc1)C(=O)NCC(=O)N[C@@H](CC(N)=O)C(=O)N[C@@H](Cc1c[nH]c2ccccc12)C(=O)N[C@@H](Cc1ccccc1)C(=O)O)C(C)C`, the results for the Ki at W190/N192 FPR [1], at R190/N192 FPR [2] and at R190/K192 FPR [3] were 4700 ± 290 nM, 15000 nM and 9500 nM, respectively.
For the molecule `CSCC[C@H](NC=O)C(=O)N[C@@H](Cc1ccc(O)cc1)C(=O)N[C@H](C(=O)N[C@@H](CCCCN)C(=O)N[C@@H](Cc1c[nH]c2ccccc12)C(=O)N1CCC[C@H]1C(=O)N[C@@H](Cc1c[nH]c2ccccc12)C(=O)N[C@@H](Cc1ccc(O)cc1)C(=O)N[C@H](C(=O)N[C@@H](Cc1c[nH]c2ccccc12)C(=O)N[C@@H](CC(C)C)C(=O)O)C(C)C)C(C)C` (For-MYVKWPWYVWL-OH), the “stimulation of GTPγS binding” value on R190/N192 FPR [4], at R190/K192 FPR [5] and at W190/N192 FPR [6] was “stimulated GTPγS binding” throughout. Moreover, the Ki was 133 ± 8 nM on W190/N192 FPR [1], 134 ± 9 nM at R190/N192 FPR [2] and 134 ± 12 nM on R190/K192 FPR [3].
On to `CC(C)C[C@H](NC(=O)[C@H](CO)NC(=O)[C@H](C)NC(=O)[C@H](Cc1c[nH]c2ccccc12)NC(=O)[C@H](CCCCN)NC(=O)[C@H](CC(=O)O)NC(=O)[C@H](CC(C)C)NC(=O)[C@@H](N)CCC(=O)O)C(=O)N[C@@H](Cc1c[nH]c2ccccc12)C(=O)N[C@@H](CC(N)=O)C(=O)N[C@@H](Cc1c[nH]c2ccccc12)C(=O)N[C@@H](Cc1ccccc1)C(=O)O` (H-ELDKWASLWNWF-OH), for which the Ki came to 1050 ± 100 nM at W190/N192 FPR [1], 1200 ± 100 nM on R190/N192 FPR [2] and 940 ± 150 nM at R190/K192 FPR [3].
`CSCC[C@H](N)C(=O)N[C@@H](Cc1ccc(O)cc1)C(=O)N[C@H](C(=O)N[C@@H](CCCCN)C(=O)N[C@@H](Cc1c[nH]c2ccccc12)C(=O)N1CCC[C@H]1C(=O)N[C@@H](Cc1c[nH]c2ccccc12)C(=O)N[C@@H](Cc1ccc(O)cc1)C(=O)N[C@H](C(=O)N[C@@H](Cc1c[nH]c2ccccc12)C(=O)N[C@@H](CC(C)C)C(=O)O)C(C)C)C(C)C` (H-MYVKWPWYVWL-OH): the results for the “inhibition of 300 nM formyl-MYVKWPWYVWL stimulation of GTPγS binding” value at R190/N192 FPR [4], on R190/K192 FPR [5] and on W190/N192 FPR [6] were “did not have a significant effect”, “did not have a significant effect” and 60%, respectively. Also, the “stimulation of GTPγS binding” value at R190/N192 FPR [4], on R190/K192 FPR [5] and on W190/N192 FPR [6] was “neither ETYIKWPWWVWL nor MYVKWPWYVWL had any effect” each time. The “fold enhancement of affinity on formylation” value is 2 fold at W190/N192 FPR [1], 6 fold at R190/N192 FPR [2] and 6 fold at R190/K192 FPR [3]. Also, the “fold higher affinity for W190/N192 than for R190/N192 or R190/K192” value on W190/N192 FPR [1] is recorded as 3 fold. For the same molecule, the results for the Ki at W190/N192 FPR [1], on R190/N192 FPR [2] and on R190/K192 FPR [3] were 263 ± 9 nM, 783 ± 50 nM and 837 ± 32 nM, respectively.
Consider `CC[C@H](C)[C@H](NC(=O)[C@H](CC(N)=O)NC(=O)[C@H](CC(=O)O)NC(=O)[C@@H](NC(=O)[C@H](CC(C)C)NC(=O)[C@@H](NC(=O)[C@H](CCC(N)=O)NC(=O)[C@H](CC(C)C)NC(=O)[C@H](CCCCN)NC(=O)[C@H](CCC(N)=O)NC(=O)[C@@H](N)C(C)C)[C@@H](C)O)[C@@H](C)CC)C(=O)N[C@@H](CC(N)=O)C(=O)N[C@@H](CO)C(=O)N[C@H](C(=O)N[C@@H](CC(C)C)C(=O)N[C@H](C(=O)N[C@@H](CC(=O)O)C(=O)N[C@@H](CC(C)C)C(=O)N[C@@H](CCCCN)C(=O)N[C@@H](Cc1c[nH]c2ccccc12)C(=O)N[C@@H](CC(C)C)C(=O)N[C@@H](CC(N)=O)C(=O)N[C@@H](CCCNC(=N)N)C(=O)N[C@H](C(=O)N[C@@H](CCC(=O)O)C(=O)N[C@H](C(=O)N[C@@H](Cc1ccc(O)cc1)C(=O)N[C@H](C(=O)N[C@@H](CCCCN)C(=O)N[C@@H](Cc1c[nH]c2ccccc12)C(=O)N1CCC[C@H]1C(=O)N[C@@H](Cc1c[nH]c2ccccc12)C(=O)N[C@@H](Cc1c[nH]c2ccccc12)C(=O)N[C@H](C(=O)N[C@@H](Cc1c[nH]c2ccccc12)C(=O)N[C@@H](CC(C)C)C(=O)O)C(C)C)[C@@H](C)CC)[C@@H](C)O)C(C)C)C(C)C)[C@@H](C)O` [Coronavirus 229E 36 mer], for which the values for the Ki at W190/N192 FPR [1], at R190/N192 FPR [2] and on R190/K192 FPR [3] were 1300 ± 60 nM, 10000 nM and 6800 nM, respectively.
The like results for `CC[C@H](C)[C@H](NC(=O)[C@H](C)NC(=O)[C@H](CCC(=O)O)NC(=O)[C@H](CCC(N)=O)NC(=O)[C@H](CC(C)C)NC(=O)[C@H](CCCNC(=N)N)NC(=O)[C@H](CC(N)=O)NC(=O)[C@@H](N)CCSC)C(=O)N[C@@H](CCCCN)C(=O)N[C@H](C(=O)N[C@@H](CC(C)C)C(=O)N[C@@H](CC(N)=O)C(=O)N[C@@H](CCC(N)=O)C(=O)N[C@@H](CO)C(=O)N[C@@H](Cc1ccc(O)cc1)C(=O)N[C@H](C(=O)N[C@@H](CC(N)=O)C(=O)N[C@@H](CC(C)C)C(=O)N[C@@H](CCCCN)C(=O)N[C@@H](CC(=O)O)C(=O)N[C@H](C(=O)NCC(=O)N[C@H](C(=O)N[C@@H](Cc1ccc(O)cc1)C(=O)N[C@@H](CCC(=O)O)C(=O)N[C@@H](Cc1ccc(O)cc1)C(=O)N[C@@H](Cc1ccc(O)cc1)C(=O)N[C@H](C(=O)N[C@@H](CCCCN)C(=O)N[C@@H](Cc1c[nH]c2ccccc12)C(=O)N1CCC[C@H]1C(=O)N[C@@H](Cc1c[nH]c2ccccc12)C(=O)N[C@@H](Cc1ccc(O)cc1)C(=O)N[C@H](C(=O)N[C@@H](Cc1c[nH]c2ccccc12)C(=O)N[C@@H](CC(C)C)C(=O)O)C(C)C)C(C)C)[C@@H](C)O)[C@@H](C)CC)[C@@H](C)CC)C(C)C` [Coronavirus OC43 36mer] were, in that order, 460 ± 50 nM, 850 ± 80 nM and 740 ± 80 nM.
On to `CC[C@H](C)[C@H](NC(=O)[C@H](Cc1ccc(O)cc1)NC(=O)[C@@H](NC(=O)[C@@H](N)CCC(=O)O)[C@@H](C)O)C(=O)N[C@@H](CCCCN)C(=O)N[C@@H](Cc1c[nH]c2ccccc12)C(=O)N1CCC[C@H]1C(=O)O` [ETYIKWP] (H-ETYIKWP-OH), for which the Ki on W190/N192 FPR [1], on R190/N192 FPR [2] and at R190/K192 FPR [3] was greater than 260000 nM throughout. Further, the “EC50 for inhibition of stimulation of GTPγS binding by formyl-Nle–Leu–Phe” value on W190/N192 FPR [6] is listed as “had no effect”.
Consider `CC[C@H](C)[C@H](NC(=O)[C@H](CC(N)=O)NC(=O)[C@H](C)NC(=O)[C@H](CCC(=O)O)NC(=O)[C@H](CC(C)C)NC(=O)[C@@H](N)Cc1ccc(O)cc1)C(=O)N[C@@H](CO)C(=O)N[C@@H](CCC(=O)O)C(=O)N[C@@H](CC(C)C)C(=O)N[C@@H](CC(C)C)C(=O)N[C@@H](CCC(=O)O)C(=O)N[C@@H](CCC(N)=O)C(=O)N[C@@H](C)C(=O)N[C@@H](CCC(N)=O)C(=O)N[C@H](C(=O)N[C@@H](CCC(N)=O)C(=O)N[C@@H](CCC(N)=O)C(=O)N[C@@H](CCC(=O)O)C(=O)N[C@@H](CCCCN)C(=O)N[C@@H](CC(N)=O)C(=O)N[C@@H](CCSC)C(=O)N[C@@H](Cc1ccc(O)cc1)C(=O)N[C@@H](CCC(=O)O)C(=O)N[C@@H](CC(C)C)C(=O)N[C@@H](CCC(N)=O)C(=O)N[C@@H](CCCCN)C(=O)N[C@@H](CC(C)C)C(=O)N[C@@H](CC(N)=O)C(=O)N[C@@H](CO)C(=O)N[C@@H](Cc1c[nH]c2ccccc12)C(=O)N[C@@H](CC(=O)O)C(=O)N[C@H](C(=O)N[C@@H](Cc1ccccc1)C(=O)NCC(=O)N[C@@H](CC(N)=O)C(=O)N[C@@H](Cc1c[nH]c2ccccc12)C(=O)N[C@@H](Cc1ccccc1)C(=O)O)C(C)C)[C@@H](C)CC` [HIV-2 37 mer], for which the Ki on W190/N192 FPR [1] was 4000 ± 1000 nM; at R190/N192 FPR [2], 15700 nM; on R190/K192 FPR [3], 10000 nM.
`CSCC[C@H](NC(=O)[C@@H](N)CCSC)C(=O)N[C@@H](Cc1c[nH]c2ccccc12)C(=O)N[C@@H](CC(C)C)C(=O)N[C@@H](CC(C)C)C(=O)O` [MMWLL, reference compound] (H-MMWLL-OH): the values for the Ki at W190/N192 FPR [1], at R190/N192 FPR [2] and at R190/K192 FPR [3] were 840 ± 200 nM, 330 ± 50 nM and 190 ± 30 nM, respectively. For the same molecule, the “fold higher affinity for R190/K192 than for W190/N192” value on R190/K192 FPR [3] was roughly 3 fold.
For the molecule `CC(C)C[C@H](NC(=O)[C@H](Cc1c[nH]c2ccccc12)NC(=O)[C@@H](NC(=O)[C@H](Cc1c[nH]c2ccccc12)NC(=O)[C@H](Cc1c[nH]c2ccccc12)NC(=O)[C@@H]1CCCN1C(=O)[C@@H](N)Cc1c[nH]c2ccccc12)C(C)C)C(=O)O` [WPWWVWL] (H-WPWWVWL-OH), the Ki at W190/N192 FPR [1], on R190/N192 FPR [2] and on R190/K192 FPR [3] was roughly 600 nM throughout.
For `CC(C)C[C@H](NC(=O)[C@H](Cc1c[nH]c2ccccc12)NC(=O)[C@@H](NC(=O)[C@H](Cc1c[nH]c2ccccc12)NC(=O)[C@@H](N)Cc1c[nH]c2ccccc12)C(C)C)C(=O)O` [WWVWL] (H-WWVWL-OH), the Ki at W190/N192 FPR [1] was roughly 600 nM; at R190/N192 FPR [2], roughly 1000 nM; at R190/K192 FPR [3], roughly 1400 nM. On W190/N192 FPR [6], this molecule yielded an EC50 of 1300 nM.

B1: Formyl peptide receptor (FPR R190/K192), P21462 (protein)
chain: METNSSLPTNISGGTPAVSAGYLFLDIITYLVFAVTFVLGVLGNGLVIWVAGFRMTHTVTTISYLNLAVADFCFTSTLPFFMVRKAMGGHWPFGWFLCKFVFTIVDINLFGSVFLIALIALDRCVCVLHPVWTQNHRTVSLAKKVIIGPWVMALLLTLPVIIRVTTVPGKTGTVACTFNFSPWTNDPKERIKVAVAMLTVRGIIRFIIGFSAPMSIVAVSYGLIATKIHKQGLIKSSRPLRVLSFVAAAFFLCWSPYQVVALIATVRIRELLQGMYKEIGIAVDVTSALAFFNSCLNPMLYVFMGQDFRERLIHALPASLERALTEDSTQTSDTATNSTLPSAEVELQAK
In the case of B1, the Ki was greater than 50000 nM with reverse 229E peptide and 190 nM in the assay with MMWLL.

One may read the Ki as a measure of affinity in units of concentration, obtained from inhibition or displacement. High values mean a looser hold on the target, low ones a stronger hold on the target. The term EC50 denotes the concentration at which the effect is half-maximal. Low readings indicate a more potent agent, high ones a less potent agent.
